Test results published in ChEMBL document CHEMBL1201862, “PubChem BioAssay data set” (2004).
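Assay format: 96-well plates, 48-hour exposure. GI50 = concentration required for 50% inhibition of growth.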 Activity calls are given as the source filed them. Rule as the data show it: active = GI50 up to about 1.1 µM and inactive = higher.

Legend:
Test in all cases: growth of human tumour cells (NCI), 48 h
[1] = system: HOP-92
[2] = system: ACHN
[3] = system: NCI-H23
[4] = system: UACC-62
[5] = system: OVCAR-8
[6] = system: SNB-19
[7] = system: OVCAR-3
[8] = system: SW-620
[9] = system: HCT-15
[10] = system: SK-MEL-2
[11] = system: OVCAR-4
[12] = system: MOLT-4
[13] = system: LOX IMVI
[14] = system: SR
[15] = system: CAKI-1
[16] = system: SK-OV-3
[17] = system: DU-145
[18] = system: MCF7
[19] = system: UO-31
[20] = system: NCI-H522

| SMILES | GI50 [1] | GI50 [2] | GI50 [3] | GI50 [4] | GI50 [5] | GI50 [6] | GI50 [7] | GI50 [8] | GI50 [9] [µM] | GI50 [10] | GI50 [11] | GI50 [12] | GI50 [13] | GI50 [14] | GI50 [15] | GI50 [16] | GI50 [17] | GI50 [18] | GI50 [19] | GI50 [20] |
| --- | --- | --- | --- | --- | --- | --- | --- | --- | --- | --- | --- | --- | --- | --- | --- | --- | --- | --- | --- | --- |
| Oc1nnc(-c2ccc(F)cc2)cc1-c1ccccc1 | > 100 µM (inactive) | 57.9 µM (inactive) | > 100 µM (inactive) | 76.2 µM (inactive) | 50.4 µM (inactive) | 44.8 µM (inactive) | 23.4 µM (inactive) | > 100 µM (inactive) | > 100 | 80.7 µM (inactive) | 38 µM (inactive) | > 100 µM (inactive) | > 100 µM (inactive) | > 100 µM (inactive) | 69.5 µM (inactive) | 42.6 µM (inactive) | 57.5 µM (inactive) | 71.4 µM (inactive) |  |  |
| COc1ccc(CC(C)NCC(O)c2ccc(O)c(NC=O)c2)cc1 (stereo unspecified) |  | > 100 µM (inactive) | > 100 µM (inactive) | > 100 µM (inactive) | > 100 µM (inactive) | > 100 µM (inactive) | > 100 µM (inactive) | > 100 µM (inactive) | > 100 | > 100 µM (inactive) | > 100 µM (inactive) | > 100 µM (inactive) | > 100 µM (inactive) | > 100 µM (inactive) | 42.2 µM (inactive) | > 100 µM (inactive) | > 100 µM (inactive) | > 100 µM (inactive) | > 100 µM (inactive) | > 100 µM (inactive) |
| Clc1ccc(Cc2nc3cc4ccccc4cc3[nH]2)cc1Cl | 11.7 µM (inactive) | 30.8 µM (inactive) | 27.3 µM (inactive) | 14.2 µM (inactive) | 20.1 µM (inactive) | 18.7 µM (inactive) | 22.8 µM (inactive) | 17.4 µM (inactive) | 15.2 | 17.1 µM (inactive) | 13 µM (inactive) | 2.37 µM (inactive) | 14.5 µM (inactive) | 7.6 µM (inactive) | 18.3 µM (inactive) |  | 20.7 µM (inactive) | 16.2 µM (inactive) | 14 µM (inactive) | 12.7 µM (inactive) |
| COc1ccc(C2=C(N)c3c(OC)cccc3C2=O)cc1 | > 10 µM (inactive) | > 10 µM (inactive) | > 100 µM (inactive) | > 100 µM (inactive) | 62.2 µM (inactive) | > 100 µM (inactive) | > 100 µM (inactive) | > 100 µM (inactive) | > 100 | > 100 µM (inactive) | > 100 µM (inactive) | > 100 µM (inactive) | 99.5 µM (inactive) | > 100 µM (inactive) | > 100 µM (inactive) | > 100 µM (inactive) | > 100 µM (inactive) | 60.5 µM (inactive) | > 100 µM (inactive) |  |
| CCCNC(=O)CCC(C)[C@H]1CCC2C3C(C[C@H](OC(C)=O)[C@@]21C)[C@@]1(C)CCC2(C[C@H]1C[C@H]3OC(C)=O)OOC1(CCC(C)CC1)OO2 (stereo partly specified) | 0.0447 µM (active) | 2.14 µM (inactive) | 4.88 µM (inactive) | 43.5 µM (inactive) | 19.5 µM (inactive) | 80.2 µM (inactive) | 4.78 µM (inactive) |  | 35.3 | 19.5 µM (inactive) | 15.8 µM (inactive) | 37.7 µM (inactive) |  | 9.79 µM (inactive) | 2.28 µM (inactive) | 60.5 µM (inactive) | 9.31 µM (inactive) | 34.7 µM (inactive) | 0.959 µM (active) | 13 µM (inactive) |
| CCN(CC)CCC(=O)c1ccc(Sc2ccc(F)cc2)cc1 |  | 18.3 µM (inactive) | 17.7 µM (inactive) | 16.2 µM (inactive) | 19.4 µM (inactive) | 17.6 µM (inactive) | 18.8 µM (inactive) | 19.9 µM (inactive) | 17.3 | 21.1 µM (inactive) | 20.1 µM (inactive) | 15.1 µM (inactive) | 17.4 µM (inactive) | 12.9 µM (inactive) | 16 µM (inactive) | 23.3 µM (inactive) | 18.9 µM (inactive) | 14.7 µM (inactive) | 17.8 µM (inactive) | 16.1 µM (inactive) |
| OC(c1cccnc1)C(F)(F)c1nc2ccccc2o1 (stereo unspecified) | > 100 µM (inactive) | > 100 µM (inactive) | > 100 µM (inactive) | > 100 µM (inactive) | > 100 µM (inactive) | > 100 µM (inactive) |  | > 100 µM (inactive) | > 100 | > 100 µM (inactive) | > 100 µM (inactive) | > 100 µM (inactive) | > 100 µM (inactive) | > 100 µM (inactive) | > 100 µM (inactive) |  | 50.8 µM (inactive) | > 100 µM (inactive) | > 100 µM (inactive) |  |
| Cc1cc(S(=O)(=O)N/C(=C(\C#N)C(=O)c2ccc(Cl)cc2)[n+]2ccc(N(C)C)cc2)c([S-])cc1Cl | < 0.01 µM (active) | > 100 µM (inactive) |  | > 100 µM (inactive) | > 100 µM (inactive) |  | 45.1 µM (inactive) |  | 48.6 | 4.84 µM (inactive) | 40.9 µM (inactive) | > 100 µM (inactive) |  | 41.3 µM (inactive) | > 100 µM (inactive) | 30.5 µM (inactive) | > 100 µM (inactive) | 71.3 µM (inactive) | > 100 µM (inactive) | 28.9 µM (inactive) |
| CCNC(=S)Nc1c(C#N)c2n(c1C(=O)OCC)CCCCC2 | 42.3 µM (inactive) | > 100 µM (inactive) | 69 µM (inactive) | > 100 µM (inactive) | > 100 µM (inactive) | > 100 µM (inactive) |  | > 100 µM (inactive) | > 100 | > 100 µM (inactive) | > 100 µM (inactive) | > 100 µM (inactive) | > 100 µM (inactive) | > 100 µM (inactive) | > 100 µM (inactive) | > 100 µM (inactive) | > 100 µM (inactive) | > 100 µM (inactive) | > 100 µM (inactive) |  |
| COc1ccc(C(=O)/C=C/c2ccc(OCC#N)cc2)cc1 | 29 µM (inactive) | 36.1 µM (inactive) | 21.3 µM (inactive) | > 10 µM (inactive) | 34.5 µM (inactive) | 26.2 µM (inactive) | 30.8 µM (inactive) | 17.3 µM (inactive) | 23.3 |  | 32.7 µM (inactive) | 23.3 µM (inactive) |  | 22.7 µM (inactive) | 19.5 µM (inactive) | 43.3 µM (inactive) | 30 µM (inactive) | 15.8 µM (inactive) | 16.6 µM (inactive) | 18.1 µM (inactive) |
| CC(=O)/C(=C\I)c1ccccc1 | 2.45 µM (inactive) |  | 2.23 µM (inactive) | 1.77 µM (inactive) | 1.82 µM (inactive) | 12.1 µM (inactive) | 1.7 µM (inactive) | 1.3 µM (inactive) | 1.83 | 2.6 µM (inactive) |  | 1.89 µM (inactive) | 1.67 µM (inactive) | 1.49 µM (inactive) |  | 13.6 µM (inactive) | 3.38 µM (inactive) | 1.8 µM (inactive) | 3.85 µM (inactive) |  |
| O=C(O)Cc1c(-c2ccc([N+](=O)[O-])cc2)c(=O)oc2cc(O)ccc12 |  | 24.2 µM (inactive) | 36.3 µM (inactive) | 38.9 µM (inactive) | 23.2 µM (inactive) | 25.1 µM (inactive) | 18.9 µM (inactive) | 34.8 µM (inactive) | 24.2 | 21.2 µM (inactive) |  | 4.12 µM (inactive) | 36.1 µM (inactive) | 25.9 µM (inactive) | > 10 µM (inactive) | 35.2 µM (inactive) | 30.4 µM (inactive) | 32.5 µM (inactive) | 23.4 µM (inactive) | 29 µM (inactive) |
| CN(C)Cc1cc(C=O)cc(CN(C)C)c1O | > 100 µM (inactive) | > 100 µM (inactive) | 26.1 µM (inactive) |  | > 100 µM (inactive) | > 100 µM (inactive) | > 100 µM (inactive) | > 100 µM (inactive) | > 100 |  | > 100 µM (inactive) | > 100 µM (inactive) | > 100 µM (inactive) | > 100 µM (inactive) |  |  | > 100 µM (inactive) | > 100 µM (inactive) | > 100 µM (inactive) | > 100 µM (inactive) |
| CCOP(=O)(OCC)OC1CC(n2cnc3c(N(CC)CC)ncnc32)OC1CO[Si](C)(C)C(C)(C)C (stereo unspecified) |  | 15.3 µM (inactive) | 17 µM (inactive) | 14.8 µM (inactive) | 21.1 µM (inactive) | 18.2 µM (inactive) | 20.3 µM (inactive) | 16.2 µM (inactive) | 21.4 | 21.7 µM (inactive) | 14.1 µM (inactive) | 11.2 µM (inactive) | 16.2 µM (inactive) | 31.3 µM (inactive) | 17.5 µM (inactive) | 17.5 µM (inactive) | 15.5 µM (inactive) | 21.8 µM (inactive) | 19.1 µM (inactive) | 14.3 µM (inactive) |
| O=C(O)CN(CCNC(=O)OCC1c2ccccc2-c2ccccc21)CCNC(=O)OCC1c2ccccc2-c2ccccc21 | 22.1 µM (inactive) | 20.6 µM (inactive) | 24.8 µM (inactive) | 23.7 µM (inactive) | 20.1 µM (inactive) | 29.6 µM (inactive) | 18.1 µM (inactive) | 21.2 µM (inactive) | 27.2 | 22.9 µM (inactive) | 27.1 µM (inactive) | 23.4 µM (inactive) | 18.1 µM (inactive) | 24.9 µM (inactive) |  | 32.2 µM (inactive) | 19.9 µM (inactive) | 18 µM (inactive) | 22.1 µM (inactive) | 17.2 µM (inactive) |
| CC(C)[C@]12O[C@H]1[C@@H]1O[C@@]13[C@@]1(C)CCC4=C(COC4=O)[C@@H]1C[C@@H]1O[C@@]13C2=O [TRIPTONIDE] | 0.0237 µM (active) | < 0.01 µM (active) | < 0.01 µM (active) | 0.0122 µM (active) | 0.0339 µM (active) |  | < 0.0133 µM (active) |  | 0.0251 | 0.0119 µM (active) | < 0.01 µM (active) | < 0.01 µM (active) | < 0.01 µM (active) | < 0.01 µM (active) |  | 0.0397 µM (active) | 0.0235 µM (active) | < 0.01 µM (active) | 0.0123 µM (active) | < 0.0186 µM (active) |
